2 compounds from ChEMBL document CHEMBL5321225, “DeepCancerMap: A versatile deep learning platform for target- and cell-based anticancer drug discovery” (Eur J Med Chem, 2023) can be followed below.

For one assay, the system named is CNE-2. Put plainly: Antiproliferative activity against human CNE-2 cells assessed as reduction in cell viability. The format is functional, cell-based.
The next assay has as its system A549. Put plainly: Antiproliferative activity against human A549 cells assessed as reduction in cell viability. The format is functional, cell-based.

For orientation: IC50 means the concentration needed to halve the response being measured.

As for `CCCCCCC(=O)Nc1ncc(Cc2ccc(OC)cc2)s1`, the IC50 with CNE-2 was 2030 nM; in the assay on A549, more than 50000 nM.

With `Cc1ccc(C(=O)Nc2ncc(Cc3cccc(Cl)c3)s2)cc1`, the IC50 in the assay with CNE-2 was 2990 nM; in the assay on A549, more than 50000 nM.
